A word on the inhibition: it is the change of the read-out against control, counted positive when it falls. Usually melting point stands for the temperature, or range, at which the solid turns liquid.

Structures are written as SMILES.

The values that follow come from patent US8846713B2, “Fused heterocyclic compounds as phosphodiesterases (PDEs) inhibitors” (Takeda Pharmaceutical Company Limited, priority 2010, dated 2014).

One data set deals with T1, Human PDE10A enzyme (Homo sapiens, UniProt Q9Y233).
T1 construct: transfected with the full-length gene; His-tag; made in house; host or cells: Sf9 or COS-7 cells
In words: PDE enzyme inhibition, SPA (Scintillation Proximity Assay) with [3H]cGMP. The format is biochemical. Particulars: [3H]cGMP substrate; for inhibition at 1 µM: compound 1 μM, read-out: Percent inhibition (1 μM); for inhibition at 10 µM: compound 10 μM, read-out: Percent inhibition (10 μM). As for the experimental part:
Human PDE10A enzyme was generated from Sf9 or COS-7 cells transfected with the full-length gene. Cloned enzyme was extracted from homogenized cell pellets. The extracted enzyme from sf9 cells was partially purified using His-tag affinity column. The enzyme was stored at −70° C. until use. PDE activity was measured using a SPA (Scintillation Proximity Assay) (GE Healthcare). To evaluate the inhibitory activity, 10 μL of serial diluted compounds were incubated with 20 μL of PDE enzyme in assay buffer (50 mM HEPES-NaOH, 8.3 mM MgCl2, 1.7 mM EGTA, 0.1% BSA (pH 7.4)) for 30 min. at room temperature. Final concentration of DMSO in the assay was 1 percent as compounds were tested in duplicate in 96-well half-area plates (Corning). To start the reaction, 10 μL of substrate [^3H] cGMP (25 or 50 nM; enclosed in SPA kits from GE Healthcare or purchased from PerkinElmer, respectively) was added for a final assay volume of 40 μL. After 60 min incubation at room temperature, yttrium SPA beads containing Zinc sulphate were added (20 μL at 6 mg/mL) to terminate the PDE reaction. After being settled for 60 min, assay plates were counted in a scintillation counter (PerkinElmer) to allow calculation of inhibition rate. Inhibition rate was calculated on the basis of 0% control wells with DMSO and 100% control wells without enzyme.
(In general: SPA uses beads or plates that emit light when radiolabelled molecules are held near them.)

T1 sequence (Q9Y233 267-1055): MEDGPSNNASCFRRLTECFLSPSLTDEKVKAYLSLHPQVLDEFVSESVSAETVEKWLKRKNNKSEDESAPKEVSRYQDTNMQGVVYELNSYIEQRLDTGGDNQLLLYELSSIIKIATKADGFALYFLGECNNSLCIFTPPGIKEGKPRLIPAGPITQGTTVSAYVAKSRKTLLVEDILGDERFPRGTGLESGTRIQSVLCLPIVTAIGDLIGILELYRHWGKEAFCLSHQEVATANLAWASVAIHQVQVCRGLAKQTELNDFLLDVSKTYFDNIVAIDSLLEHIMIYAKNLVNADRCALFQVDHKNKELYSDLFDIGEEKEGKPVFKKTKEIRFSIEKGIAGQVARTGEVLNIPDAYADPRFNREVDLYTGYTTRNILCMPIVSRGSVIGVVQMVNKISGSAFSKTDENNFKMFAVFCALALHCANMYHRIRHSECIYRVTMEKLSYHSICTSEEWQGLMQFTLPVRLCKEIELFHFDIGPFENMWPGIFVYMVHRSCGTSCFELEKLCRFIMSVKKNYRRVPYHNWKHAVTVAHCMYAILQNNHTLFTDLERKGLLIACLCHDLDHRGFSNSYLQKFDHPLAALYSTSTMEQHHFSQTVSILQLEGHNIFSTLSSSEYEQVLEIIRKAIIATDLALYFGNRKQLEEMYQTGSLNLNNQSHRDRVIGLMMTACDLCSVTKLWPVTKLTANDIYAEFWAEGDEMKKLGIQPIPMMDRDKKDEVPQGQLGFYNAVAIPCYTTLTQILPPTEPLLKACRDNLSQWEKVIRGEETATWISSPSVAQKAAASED

For the compound `CCn1c(=O)n(-c2ccc(Oc3nc4cccnc4n3C)cc2)c2ncc(OCC(F)(F)F)cc21` [Example 129, 1-ethyl-3-{4-[(3-methyl-3H-imidazo[4,5-b]pyridin-2-yl)oxy]phenyl}-6-(2,2,2-trifluoroethoxy)-1,3-dihydro-2H-imidazo[4,5-b]pyridin-2-one], the melting point fell in the range of 178 to 179 °C. For the same compound, at Human PDE10A enzyme, the inhibition at 1 µM came to 89% and the inhibition at 10 µM stood at 96%.
Taken in the same sequence, the figures for `CCn1c(=O)n(-c2ccc(Oc3nc4cccnc4n3C)cc2)c2nccc(C(F)(F)F)c21` [Example 130, 1-ethyl-3-{4-[(3-methyl-3H-imidazo[4,5-b]pyridin-2-yl)oxy]phenyl}-7-(trifluoromethyl)-1,3-dihydro-2H-imidazo[4,5-b]pyridin-2-one] were 244 to 246 °C, 95% and 98%.
Taken in the same sequence, the figures for `CCn1c(=O)n(-c2ccc(N3CCn4c3nc3cccnc34)cc2)c2ncccc21` [Example 134, 3-[4-(2,3-dihydro-1H-imidazo[2′,1′:2,3]imidazo[4,5-b]pyridin-1-yl)phenyl]-1-ethyl-1,3-dihydro-2H-imidazo[4,5-b]pyridin-2-one] were 255 to 256 °C, 101% and 104%.
